Test results taken from patent US20050159359A1, “Methods and compositions for derepression of IAP-inhibited caspase” (The Burnham Institute, priority 2001, published 2005).
Each block holds one molecule with its values, some of them ahead of it. Where no end group is shown, it is not given here. [ ]: non-standard residue; d: D form. The star is where a group is joined. Phe(4-Cl) = N[C@@H](Cc1ccc(Cl)cc1)C(=O)O; dPhe(4-Cl) = N[C@H](Cc1ccc(Cl)cc1)C(=O)O; dPhe(4-F) = N[C@H](Cc1ccc(F)cc1)C(=O)O; 2Nal = N[C@@H](Cc1ccc2ccccc2c1)C(=O)O; d2Nal = N[C@H](Cc1ccc2ccccc2c1)C(=O)O; Fmoc = O=C(OCC1c2ccccc2-c2ccccc21)*; 2Thi = N[C@@H](Cc1cccs1)C(=O)O

How the values were obtained:
full length XIAP = full length XIAP (Homo sapiens, UniProt P98170); experiment: SMAC competition assay: rhodamine labeled SMAC tetrapeptide AVPI and full length XIAP; settings: for EC50: amount of compound necessary to restore Caspase-3 activity to 50% of Vmax; for Relative Potency: fold relative to SMAC AVPI tetrapeptide
[1] = tested on: normal bone marrow mononuclear cells; experiment: Toxicity to normal bone marrow mononuclear cells, Annexin V flow cytometry; assay type: cell-based; settings: same culture conditions as Jurkat killing; 5 μM, 20 hours
Procedure: A comparison of the effects of TPI1396-34 on normal bone marrow cells versus Jurkat leukemia cells was performed as follows. TPI1396-34 (5 μM) was incubated with Jurkat cells or normal bone marrow mononuclear cells (6.25×10^5/mL) in RPMI and 2.5% FBS for 20 hours. After incubation, cells were washed, stained with FITC-conjugated Annexin V antibody and propidium iodide, and fluorescence measured by flow cytometry as described above.

[2] = tested on: U937 leukemia cells (U937-Neo, U937-XIAP); experiment: Apoptosis in U937 cells transfected with Neo-control or XIAP plasmid; assay type: cell-based; settings: U937-XIAP vs U937-Neo, 5 or 8 μM, 20 hours
Procedure: After incubation, cells were washed, stained with FITC-conjugated Annexin V antibody and propidium iodide, and fluorescence measured by flow cytometry as described in Example X.

HeLa cells = experiment: Apoptosis in HeLa cells transfected with XIAP, XIAP mutants or Bcl-XL, Annexin V; assay type: cell-based; settings: 5 μM, 20 hours
Procedure: In addition to transfecting the cells with full-length XIAP, analogous assays were performed with HeLa cells transfected with plasmids over-expressing various XIAP mutants. […] The mutant was produced by site-directed mutagenesis to modify positions 148, 219, 223, 314 and 323 to contain alanine. HeLa cells were also transiently transfected with plasmids encoding Bcl-XL, an anti-apoptotic protein that operates upstream of Caspases to suppress Cytochrome C release from mitochondria. HeLa cells (2.5×10^5) were seeded onto six well plates in 2 mL DMEM H21 with 5% FBS. After 24 hrs, cells were transfected (Gene Porter) with plasmids. At 48 hrs after transfection, cells were treated with 5 μM of TPI1396-34 for 20 hours. Both floating and adherent cells were then recovered from cultures, washed, and apoptosis was determined by Annexin V staining using flow cytometry.

[3] = tested on: ALVA31 prostate cancer cells; experiment: ALVA31 cell viability (XTT dye-reduction and trypan blue dye exclusion); assay type: cell-based; settings: IAP antagonist 40 μM or VP-16 100 μM, 24 hrs
Procedure: The in vivo effects of TPI792-33 or TPI792-35, either individually or in combination with the cytotoxic anticancer drug VP-16 (etoposide), on derepression of XIAP-inhibited caspase and viability of ALVA31 cells was determined as follows. ALVA31 prostate cancer cells were seeded onto 96 well plates (10^4 cells/well) in 100 μL RPMI containing 2.5% fetal bovine serum (FBS). […] After another 24 hrs incubation, cell viability was measured by the XTT dye-reduction assay (Roche, Molecular Biochemicals; Indianapolis, Ind.) and trypan blue dye exclusion assay.

XIAP-inhibited caspase-3 = XIAP-inhibited caspase-3 (Homo sapiens, UniProt P98170); experiment: IAP derepression assay: Ac-DEVD-AFC hydrolysis by caspase-3 in presence of GST-XIAP; assay type: biochemical; settings: tested at 0.4, 2, 10 and 50 micrograms per milliliter
Procedure: Caspase activity was assayed by release of −7-amino-4-trifluoromethyl-coumarin (AFC) from Ac-DEVD-AFC synthetic peptides using a Molecular Devices Spectromax 340 (see Zhou et al., J. Biol. Chem. 272: 7797-7800 (1997)). […] The ratio of Vmax for hydrolysis of Ac-DEVD-AFC in the presence and absence of the candidate mixture was calculated and used to identify those that contain an agent that derepresses an IAP-inhibited caspase.
Screening of each mixture from the DCR390, TPI1239 or TPI1328 library, respectively, using the above described assay was carried out as follows. Each mixture was aliquoted in a 25 microliter volume and in duplicate to a well of a 96 well microtiter plate. […] Fluorescence of liberated AFC was immediately detected from each well for 30 minutes at 30 second intervals. The Vmax for hydrolysis of AC-DEVD-AFC from each well was measured using the softmax software package.

[4] = Jurkat cell killing, Annexin V / propidium iodide flow cytometry; assay type: cell-based; settings: human
Procedure: The following assay was used to test the ability of individual compounds from the TPI1396 and TPI1391 libraries to induce apoptosis of cultured tumor cell lines. Each of the compounds listed in Table IX was individually added to Jurkat leukemia cells (6.25×10^5 cells/mL) in RPMI containing 2.5% FBS at various concentrations for 20 hours. After incubation, cells were washed and stained with FITC-conjugated Annexin V antibody and propidium iodide (Biovision; Mountain View, Calif.). Cells were incubated for 20 minutes at room temperature in the dark and fluorescence was measured by flow cytometry (FACScan, Immunocytometry system; Becton-Dickinson; San Jose, Calif.). Cells staining positive for Annexin V were deemed non-viable.
The TPI1396-34 and TPI1391-28 compounds were further tested as set forth below.

caspase-3 and -7 = settings: read-out: Ki for inhibition of caspase-3 and -7; reported; cited from earlier work

Chain of XIAP-inhibited caspase-3 (P98170 whole entry): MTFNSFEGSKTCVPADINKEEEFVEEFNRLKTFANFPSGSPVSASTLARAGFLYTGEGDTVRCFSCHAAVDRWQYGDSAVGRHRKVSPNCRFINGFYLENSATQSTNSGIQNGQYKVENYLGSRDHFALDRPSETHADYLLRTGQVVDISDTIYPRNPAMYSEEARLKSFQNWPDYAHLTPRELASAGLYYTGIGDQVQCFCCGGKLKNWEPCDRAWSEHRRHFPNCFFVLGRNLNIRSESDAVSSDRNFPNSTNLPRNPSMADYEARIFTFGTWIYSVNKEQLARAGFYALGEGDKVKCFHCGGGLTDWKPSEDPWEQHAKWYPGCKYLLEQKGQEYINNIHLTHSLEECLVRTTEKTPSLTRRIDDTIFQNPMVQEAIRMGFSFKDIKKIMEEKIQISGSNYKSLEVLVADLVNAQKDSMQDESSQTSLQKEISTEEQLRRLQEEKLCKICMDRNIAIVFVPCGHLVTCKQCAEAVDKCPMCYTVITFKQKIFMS
Chain of full length XIAP (P98170 whole entry): as above

Molecule: CCCCCCCN1C(=O)C(=O)N([C@H](CCCC)CNCc2ccccc2)C[C@@H]1Cc1ccc2ccccc2c1 [TPI1391-21]
EC50 (full length XIAP): 37 µM
Relative Potency (full length XIAP): 3.4

Molecule: COc1cc([C@@H]2c3cc4c(cc3[C@@H](O[C@@H]3O[C@@H]5CO[C@@H](C)O[C@H]5[C@H](O)[C@H]3O)[C@H]3COC(=O)[C@H]23)OCO4)cc(OC)c1O [VP-16, etoposide]
effect on viability of ALVA31 cells, agent alone [3]: essentially no effect

Molecule: (L-ThiAla)-(D-pClPhe)-(L-pClPhe)-(Lys-εFmoc) ([2Thi][dPhe(4-Cl)][Phe(4-Cl)]K(Fmoc)) [TPI792-27]
LC (lowest concentration with a ratio of 2 or higher in the derepression assay) (XIAP-inhibited caspase-3): 2 µg/mL

Molecule: (L-ThiAla)-(Lys-εFmoc)-(D-Nal)-(Lys-εFmoc) ([2Thi]K(Fmoc)[d2Nal]K(Fmoc)) [TPI792-19]
LC (lowest concentration with a ratio of 2 or higher in the derepression assay) (XIAP-inhibited caspase-3): 2 µg/mL

Molecule: (L-ThiAla)-(Lys-εFmoc)-(L-pClPhe)-(pF-D-F) ([2Thi]K(Fmoc)[Phe(4-Cl)][dPhe(4-F)]) [TPI792-22]
LC (lowest concentration with a ratio of 2 or higher in the derepression assay) (XIAP-inhibited caspase-3): 2 µg/mL

Molecule: H-AVPIAQK-NH2 [SMAC, H-Ala-Val-Pro-Ile-Ala-Gln-Lys-NH2]
percent nonviable cells at 20 hours, 50 µM ([4]; 50 μM): ~16%
percent nonviable cells at 20 hours, 100 µM ([4]; 100 μM): 15%

Molecule: cIAP2: cellular IAP protein, human inhibitor of apoptosis protein
Ki (caspase-3 and -7): 0.0002 to 0.01 µM

More lines, main results first:

Relative Potency (full length XIAP): 4.8
Molecule: CC(C)C[C@@H]1CN([C@H](CNCc2ccccc2)Cc2ccc3ccccc3c2)C(=O)C(=O)N1CCc1cccc(C(F)(F)F)c1 [TPI1391-28]
toxicity to normal bone marrow cells [1]: little toxicity

EC50 (full length XIAP): 33 µM
Molecule: COc1ccc(CCN2CCC[C@@H]2CN(C(=O)Nc2ccccc2)[C@@H](CNC(=O)Nc2ccccc2)CC2CCCCC2)cc1 [TPI1396-34]
effect of XIAP over-expression on apoptosis induction [2]: resistant
toxicity to normal bone marrow cells [1]: little toxicity
apoptosis (HeLa cells; HeLa expressing XIAP mutant with mutated SMAC-binding pocket): not protected
apoptosis (HeLa cells; HeLa expressing mutant of only the BIR2 domain): not protected
apoptosis (HeLa cells; HeLa expressing the BIR3 domain): protected
apoptosis (HeLa cells; HeLa over-expressing Bcl-XL): not blocked
apoptosis (HeLa cells; HeLa over-expressing full-length XIAP): protected
apoptosis (HeLa cells; HeLa transfected with control vector): induced apoptosis

LC (lowest concentration with a ratio of 2 or higher in the derepression assay) (XIAP-inhibited caspase-3): 10 µg/mL
Molecule: (D-Nal)-(D-pClPhe)-(L-pClPhe)-(Lys-εFmoc) ([d2Nal][dPhe(4-Cl)][Phe(4-Cl)]K(Fmoc)) [TPI792-9]

LC (lowest concentration with a ratio of 2 or higher in the derepression assay) (XIAP-inhibited caspase-3): 2 µg/mL
Molecule: (D-Nal)-(L-Nal)-(D-Lys-εFmoc)-(Lys-εFmoc) ([d2Nal][2Nal][dK](Fmoc)K(Fmoc)) [TPI792-17]

LC (lowest concentration with a ratio of 2 or higher in the derepression assay) (XIAP-inhibited caspase-3): 2 µg/mL
Molecule: (D-Nal)-(L-Nal)-(L-pClPhe)-(Lys-εFmoc) ([d2Nal][2Nal][Phe(4-Cl)]K(Fmoc); also: 4: D-Lys-εFmoc in Table V) [TPI792-15]

LC (lowest concentration with a ratio of 2 or higher in the derepression assay) (XIAP-inhibited caspase-3): 2 µg/mL
Molecule: (D-Nal)-(Lys-εFmoc)-(L-pClPhe)-(Lys-εFmoc) ([d2Nal]K(Fmoc)[Phe(4-Cl)]K(Fmoc); not fully specified; printed as (D-Nal)-(Lys-εFmoc)-(L-pClPhe)-(Lys-εFmoc)) [TPI792-3]
